Assay results as given in patent US10342804B2, “Steroid compound for use in the treatment of hepatic encephalopathy” (Umecrine Cognition AB, priority 2014, dated 2019).

Legend:
Assay type in all cases: in vivo, rat
[1] = tested on: hyperammonemic rats; assay: Spatial learning in the Radial maze, chronic hyperammonemia model (Example 2); conditions: 20 mg/kg s.c. once daily, 6th-7th week of treatment
From the text: (§1) In this study an animal model of chronic hyperammonemia was used that reproduces many of the cognitive and motor alterations present in hepatic encephalopathy. Rats were fed with ammonia in their food and after two weeks with ammonia enriched food they developed symptoms of hepatic encephalopathy. The beam walking test was made during the 3rd and 4th week of 3α-ethynyl-3β-hydroxyandrostan-17-one oxime treatment while the Morris Water maze test was made during 4th-5th week of 3α-ethynyl-3β-hydroxyandrostan-17-one oxime treatment and the Radial maze test was made during 6th-7th week of 3α-ethynyl-3β-hydroxyandrostan-17-one oxime treatment.
The study was divided into two series with animals (male Wistar rats), each series included the following groups; Controls treated with vehicle (CV, n=8 per series), Controls treated with 3α-ethynyl-3β-hydroxyandrostan-17-one oxime (C+GAM, n=8 per series), hyperammonemic rats treated with vehicle (HAV, n=8 per series), hyperammonemic rats treated with 3α-ethynyl-3β-hydroxyandrostan-17-one oxime (HA+GAM, n=8 per series). […]
Training in the radial maze was composed of five blocks of three trials each, performed on ten consecutive days. […] The number of spatial reference errors and working memory were calculated and expressed as number of reference and working errors per block. […]

[2] = tested on: blood ammonia; assay: Ammonia determination in blood (Example 5)
From the text: The study was divided into two series with animals (male Wistar rats), each series included the following groups; Controls treated with vehicle (CV, n=8 per series), Controls treated with 3α-ethynyl-3β-hydroxyandrostan-17-one oxime (C+GAM, n=8 per series), hyperammonemic rats treated with vehicle (HAV, n=8 per series), hyperammonemic rats treated with 3α-ethynyl-3β-hydroxyandrostan-17-one oxime (HA+GAM, n=8 per series). The once daily treatment with 3α-ethynyl-3β-hydroxyandrostan-17-one oxime at 20 mg/kg or with vehicle was performed with subcutaneous injections of 1 ml/kg around 9 a.m. Treatment started one week after starting with the ammonium containing diet and continued for the whole experimental period.
Blood was obtained from the tail of the rats (from Example 2) in the end of second week of ammonia treatment and first week of 3α-ethynyl-3β-hydroxyandrostan-17-one oxime treatment and also from the neck during the animal sacrifice. To obtain the plasma it was added EDTA […] and centrifuged at 1500 r.p.m during 5 minutes.
Ammonia concentration in blood samples was measured using the Pocket chem BA (Woodley Equipment Company Ltd, United Kingdom), an ammonia analyzer. The device enables immediate testing and delivers results in 3 minutes and 20 s. It also eliminates the need for pre-processes such as centrifugal separation.

[3] = tested on: hyperammonemic rats; assay: Beam walking test, hyperammonemic rats (Example 8)
Experimental: Male Wistar rats (140-160 g) were made hyperammonemic by feeding them a diet containing ammonium acetate (30% by weight) (Felipo et al, European Journal of Biochemistry, 1988, 176, 567-571).
3α-ethynyl-3β-hydroxyandrostan-17-one oxime in sesame oil was administered by subcutaneous injections in the back of the rats, once daily. Two different sets of experiments were performed in hyperammonemic rats. In the first set four groups of rats were used: 1) control rats injected with vehicle; 2) hyperammonemic rats injected with vehicle; 3) control rats injected with 20 mg/Kg of 3α-ethynyl-3β-hydroxyandrostan-17-one oxime and 4) hyperammonemic rats injected with 20 mg/Kg of 3α-ethynyl-3β-hydroxyandrostan-17-one oxime. […]
Motor coordination was tested as described by Gonzalez-Usano et al (ACS Chemical Neuroscience, 2014, 19, 5(2), 100-105) using a wooden beam (20 mm diameter). Rats were made to traverse a one-meter-long wooden beam located approximately one meter above the ground, and the number of foot faults (slips) was recorded by two observers. The rats were trained for the test by being made to traverse the beam up to five times before measurements were recorded. […]

[4] = tested on: hyperammonemic rats; assay: Spatial memory in the Morris water maze, chronic hyperammonemia model (Example 3); conditions: 20 mg/kg s.c. once daily, 4th-5th week of treatment
From the text: as §1, with “treatment. […]” for “treatment.”
The test was carried out as follows; the first day was the pre-training day, rats were put in the water two times for 30 s only to adapt to water. […] The time, speed and path needed to find the hidden platform was recorded by a video tracking system provided by Viewpoint Company (Viewpoint 2.5, Champagne au Mont D′ Or, France) and used as a measure of learning of the task. After 15 training trial, the platform was removed from the pool, the rats were allowed to swim for 90 s in the pool and the time spent in the quadrant where the platform was positioned during training was recorded.

## C#C[C@]1(O)CC[C@@]2(C)C(CC[C@@H]3[C@@H]2CC[C@]2(C)/C(=N\O)CC[C@@H]32)C1 (stereo partly drawn) [3α-ethynyl-3β-hydroxyandrostan-17-one oxime]
[1]
  Spatial learning/memory in the Radial maze (working errors): completely restored
[2]; control rats treated with 20 mg/kg s.c. once daily
  Blood ammonia levels: 55 ± 7 µM
[2]; hyperammonemic rats treated with 20 mg/kg s.c. once daily
  Blood ammonia levels: 139 ± 15 µM
[3]; 3 mg/kg s.c. once daily
  Number of slips, beam walking test: 0.8±0.1 slips
[3]; 20 mg/kg s.c. once daily
  Number of slips, beam walking test: 0.78±0.07 slips
[4]
  Spatial memory in the Morris water maze (time to find the platform): completely restored spatial memory
